The values below come from PMC12382740, “In Vitro and In Vivo Characterization of Novel Cathelicidin-Based Peptides with Antimicrobial Activity Against Pseudomonas aeruginosa” (Antibiotics, 2025).

The test system of series [1] is HeLa cells. On the set-up: method as in PMID 26114809. The note with it: read-out: IC50 against HeLa cells; cited from earlier work.
In series [2] the test system is erythrocytes. Also noted: method as in PMID 26114809. The note with it: at 64 mg/L ref 58; cited from earlier work.
Series [3] relates to human erythrocytes. Put plainly: Hemolysis assay. Type of series: cell-based. Conditions: red cells of human, 4 h. The method, then:
Commercially available human blood (IWB1K2E10ML, Innovative Research Inc., Novi, MI, USA) was used to produce a 50% haematocrit solution by mixing at 1:1 with PBS 1× (P5493, 1 L, Sigma, St. Louis, MO, USA). Three consecutive PBS 1× washes plus centrifugation at 2600 rpm for 10 min steps were performed. Finally, a 2% erythrocyte solution was prepared in PBS 1× and chilled on ice until used. Polypropylene plates were filled with 50 µL PBS 1× per well for the samples and 50 µL 2% Triton X-100 (TX-100, 9002-93-1, 100 mL, Sigma, St. Louis, MO, USA) for the hemolysis controls. A solution at 4× final concentration of the assay of each peptide was prepared in PBS and 50 µL were added to the first column of each plate, followed by serial dilutions in the microplate. Then, 50 µL of the 2% erythrocyte solution was added to each plate. […] controls consisted in a 1:1 mix of PBS 1× and erythrocytes at 2%. Plates were incubated at 37 °C for 4 h and then centrifuged at 1500 rpm for 5 min. Eighty µL were extracted from the supernatant of each well carefully and transferred to a polystyrene flat bottom plate for reading and read at 450 nm in an Epoch microplate spectrophotometer (Epoch™, BioTek, Winooski, VT, USA).
The therapeutic index is a widely accepted parameter to represent the specificity of antimicrobial peptides for prokaryotic versus eukaryotic cells. It is calculated by the ratio of HC50 (hemolytic activity) and MIC (antimicrobial activity); thus, larger values of therapeutic index indicate greater specificity for prokaryotic cells.

Series [4] has as its system P. aeruginosa strain panel. Type of series: cell-based, Pseudomonas aeruginosa. The note with it: strain panel. How it is done: (§1) The antimicrobial activity of the peptides was tested against a collection of P. aeruginosa, selected by their resistance or susceptibility to colistin and/or classified as MDR strains. The origin of the strains was either clinical, relevant to the current clinical situation, or commercial strains belonging to the American Type Culture Collection (ATCC, Manassas, VA, USA), which complemented the collection for comparison and control. For the initial activity screening of the 17 peptides, we tested them against P. aeruginosa ATCC strains 1211007 and 1211101. Both strains are multidrug-resistant; however, the key difference is that strain 1211007 is susceptible to colistin, whereas strain 1211101 is resistant to colistin.
(§2) Minimum Inhibitory Concentration (MIC) of the antimicrobial agents against bacterial strains was obtained through broth microdilution assays following a protocol based on the Clinical & Laboratory Standards Institute’s guidelines. Modifications regarding microplate material and broth were included when testing the peptides’ activity and are detailed below. Colistin MICs were obtained following recommendations of the joint CLSI-EUCAST Polymyxin Breakpoints Working Group using Cation Adjusted Mueller-Hinton Broth (90922, 500 g Sigma-Aldrich®, St. Louis, MO, USA), and strains Escherichia coli 13846 (mcr-1 positive) and P. aeruginosa ATCC 27853 were used as quality controls in all assays. Bacteria were cultured in Columbia Agar plates (Columbia Agar with 5% Sheep Blood 90 mm Stacker plates, Becton Dickinson, Franklin Lakes, NJ, USA) and incubated overnight at 37 °C. Polypropylene round-bottomed 96-well plates (-96-well Polypropylene Storage Microplates, 267334, Thermo Fischer Scientific, Waltham, MA, USA) were used to prevent peptide binding to plate walls. AST broth (BD Phoenix™ AST broth, 8 mL, 246003, Becton Dickinson, Franklin Lakes, NJ, USA) was used when testing the peptides’ activity. […] Three biological and technical replicates were performed per strain.

The test system of series [5] is P. aeruginosa Strain 121007. In kind it is cell-based, Pseudomonas aeruginosa. Conditions: Strain 121007. How it is done: as §1, §2
Series [6] is described as follows: In vivo toxicity study, topical. On the set-up: species or system BALB/C mice. The method, then: Immunocompetent female BALB/C mice weighing 20 g (7–9 weeks old) were used (Charles River laboratories, St-Germain-Nuelles, France). Animals were murine pathogen-free and were assessed for genetic authenticity. The study followed the Guide for the Care and Use of Laboratory Animals. The experiments followed the 2010/63/EU directive on the protection of animals used for scientific research. Experiments were approved by the Committee on the Ethics of Animal Experiments of the Virgen del Rocío University Hospital and the Andalusian Ministry of Agricultura, Pesca, Agua y Desarrollo Rural, Junta de Andalucía, Sevilla, Spain (11-09-15-322).
CAP-18 and D-CAP-18 peptides were evaluated in five healthy female BALB/C mice at the dosage and regimen schedule to be used in the efficacy studies. The following indicative signs of acute toxicity were assessed during seven days: reduced water (dehydration)/food intake, isolation, self-mutilation, tremors/spasms, dyspnea, physical activity (increased/reduced), chromo-dacryorrhea, dermal responses, including erythema/oedema/redness/discoloration/necrosis), muscle stiffness, piloerection, teeth grinding, and weight loss.

Series [7] relates to A549 cells. In kind it is cell-based, human. Conditions: 24 h. How it is done: (§3) Cell viability assays were performed against HeLa and A549 cells. Cells were seeded in Corning 96-well microplates at 2 × 10^3 cells/well and 5 × 10^3 cells/well and incubated for 24 h at 37 °C. Then, cells were treated with peptides dissolved in Dulbecco’s Modified Eagle’s Medium for 24 h; peptide concentration range 0.1–100 µM. The peptide solution was then removed, and fresh medium was added to the cells. Finally, 50 µL of activated-XTT solution was added and incubated for 4 h at 37 °C. A PowerWave X reader (BioTek, Winooski, VT, USA) was used to measure absorbance at 450 nm. Cell viability was calculated through the ratio of the absorbance of peptide-treated cells over the absorbance of untreated cells. Triplicates were run for each experiment.

Series [8] deals with HeLa cells. In kind it is cell-based, human. The note with it: 24 h. How it is done:
as §3

pIC50: −log10 of the molar value. ≈ marks a conversion by molar mass, not a printed value. Like-named read-outs stand apart in the source and are kept apart here. Square brackets hold non-standard residues; d marks the D form. Peptide text beside a SMILES is read from it. * marks the point of attachment. Gu = N-terminal guanidylation, N=C(N)*

By pIC50 is commonly meant the negative decadic logarithm of the IC50, by convention in mol/L. mastoparan: the pIC50 in series [1] was 4.49. The hemolysis in series [2] is listed as 6.6%.

The MIC50 is the lowest concentration that inhibits either 50% of growth or 50% of the strains tested, depending on the study. A high value points to lower susceptibility. Broadly, the MIC90 is an inhibitory concentration at the 90% level, which refers to growth in some studies and to a panel of isolates in others. A higher MIC90 goes with lower susceptibility. By MIC is commonly meant the lowest concentration that inhibits growth of the organism. Lower therefore signals greater potency. For the compound `CC[C@@H](C)[C@@H](NC(=O)[C@@H](CCCCN)NC(=O)[C@@H](CCCCN)NC(=O)[C@@H](CC(C)C)NC(=O)[C@@H](CCCCN)NC(=O)[C@@H](CCC(=O)O)NC(=O)[C@@H](CCCCN)NC(=O)[C@H](NC(=O)[C@@H](CCCCN)NC(=O)[C@@H](CC(N)=O)NC(=O)[C@@H](CCCNC(=N)N)NC(=O)[C@@H](Cc1ccccc1)NC(=O)[C@@H](CCCCN)NC(=O)[C@@H](CCCNC(=N)N)NC(=O)[C@@H](CC(C)C)NC(=O)[C@@H](CCCNC(=N)N)NC(=O)[C@@H](CCCCN)NC(=O)[C@@H](CCCNC(=N)N)NC(=O)[C@@H](CC(C)C)NC(=O)CN)[C@H](C)CC)C(=O)NCC(=O)N[C@H](CCC(N)=O)C(=O)N[C@H](CCCCN)C(=O)N[C@@H](C(=O)N[C@H](CCC(N)=O)C(=O)NCC(=O)N[C@H](CC(C)C)C(=O)N[C@H](CC(C)C)C(=O)N1CCC[C@@H]1C(=O)N[C@H](CCCCN)C(=O)N[C@H](CC(C)C)C(=O)N[C@H](C)C(=O)N1CCC[C@@H]1C(=O)N[C@H](CCCNC(=N)N)C(=O)N[C@@H](C(=O)N[C@H](CC(=O)O)C(=O)N[C@H](Cc1ccc(O)cc1)C(=O)O)[C@H](C)O)[C@H](C)CC` [D-CAP-18, Glrkrlrkfrnkikeklkkigqkiqgllpklaprtdy] (H-G[dL][dR][dK][dR][dL][dR][dK][dF][dR][dN][dK][dI][dK][dE][dK][dL][dK][dK][dI]G[dQ][dK][dI][dQ]G[dL][dL][dP][dK][dL][dA][dP][dR][dT][dD][dY]-OH), the pIC50 was 4.21 in series [3], 5.68 in series [7] and 5.68 in series [8]. The MIC50 in series [4] came to 1 µg/mL (≈ 0.226 µM). The same compound yielded an MIC90 in series [4] of 2 µg/mL (≈ 0.451 µM). In series [5], this compound showed a minimal inhibitory concentration (MIC) of 2 µg/mL (≈ 0.451 µM). For the same compound, the “mice final weight (median ± SD)” value in series [6] (after 7 days of observation after the treatment) was determined as 18.9 ± 0.30 grams. Further, in series [6] (healthy female BALB/C mice, during the application), the “dermal responses and body weight loss” value is given as “no dermal responses, including erythema/oedema, nor body weight loss were observed”. Also, the “indicative signs of acute toxicity” value in series [6] (healthy female BALB/C mice, topical, efficacy dosage, 7 days observation) is given as “None of the 11 indicative signs of acute toxicity were observed”.

Take H-INLKALAALAKKIL-CH2CH2NH2: the negative-log IC50 (pIC50) in series [1] is 5.30.

For H-inlkalaalakkil-NH2, the negative logarithm of the IC50 (pIC50) in series [1] was 5.00.

For the compound “Gu-INLKALAALAKKIL-NH2 (SMILES CC[C@H](C)[C@H](NC(=N)N)C(=O)N[C@@H](CC(N)=O)C(=O)N[C@@H](CC(C)C)C(=O)N[C@@H](CCCCN)C(=O)N[C@@H](C)C(=O)N[C@@H](CC(C)C)C(=O)N[C@@H](C)C(=O)N[C@@H](C)C(=O)N[C@@H](CC(C)C)C(=O)N[C@@H](C)C(=O)N[C@@H](CCCCN)C(=O)N[C@@H](CCCCN)C(=O)N[C@H](C(=O)N[C@@H](CC(C)C)C(N)=O)[C@@H](C)CC) [guanidylated mastoparan analog]”, the pIC50 in series [1] is 4.89.
